In a melting point compilation (Tetko et al.; mined from patent text by program, amines drawn as free bases though some values may be those of a salt) one finds melting point data, which are given here for 89 compounds.

Broadly, the melting point is the temperature, or range, at which the solid turns liquid. Compound `CC12CCC3c4ccc(C(=O)O)cc4CCC3C1CCC2C(=O)CC1CCCCC1` (centres undefined) registered a melting point of 239 to 241 °C.
Then `COc1cc2nc(N3CCN(c4ccc(Cl)ccc4=O)CC3)nc(N)c2cc1OC`, with 202 to 204 °C.
Then `CCCOc1ccc(S(=O)(=O)N2CCN(CCO)CC2)cc1-c1nc2c(CCC)nn(C)c2c(=O)[nH]1`, with 158 to 159 °C; and `CCOC(=O)COC(c1cccc(-c2nnc(Nc3ccc(Cl)c(Cl)c3)s2)c1)c1cccc(C(F)(F)F)c1` (centres undefined), with 135 to 136 °C; and `COc1ccc(C(=O)Nc2ccc3ccc(Oc4ccccc4F)nc3n2)cc1`, with 208 °C.
`CC(=C=CC(C)(C)c1ccc(Cl)cc1)C(=O)O`: the melting point was in the range of 106 to 108 °C.
`CC#CCOc1ccc(S(=O)(=O)C(C(=O)OCC)C2CCN(C(=O)c3ccccc3)CC2)cc1` (centres undefined) displayed a melting point of 120 °C.
Turning to `Cc1nc(Cl)c(C#N)c(NCc2cccnc2)n1`, the melting point lay in the range of 165 to 167 °C.
Then `CCC(=O)Nc1c([N+](=O)[O-])c(C(C)(C)C)nn1-c1c(Cl)cc(C(F)(F)F)cc1Cl`, with 151 to 152 °C.
Then `CCCOc1c(OC)cc(C(=O)Cl)cc1[N+](=O)[O-]`, with 180 to 184 °C; and `COc1ccc(-c2nc(N)ncc2-c2ccc(=O)[nH]n2)cc1F`, with 250 °C; and `Cc1c(C#N)sc2nc(-c3ccc([N+](=O)[O-])cc3)nc(N3CCNCC3)c12`, with 250 °C.
Then `CC(C)c1ccc(S(=O)(=O)n2c(Cc3ccc(C(=O)O)c(F)c3)cc3cc(Cl)ccc32)cc1`, with 196 °C; and `O=[N+]([O-])c1ccc2c(c1)O[C@@H](CNCc1ccccc1)CO2`, with 98 °C; and `CNC(=O)C(=O)CCCCCCSc1nc2ccccc2s1`, with 83 to 84 °C.
Compound `CC(C)(C)c1ccc(-c2ccc(COc3cccc4cc(NS(=O)(=O)C(F)(F)F)ccc34)c(F)c2)cc1` returned a melting point of 162 to 164 °C.
The result for `O=c1c2cnc(N3CCCCC3)nc2sn1CCc1ccccn1` reads 109 to 110 °C; that for `O=c1c2ccccc2nnn1CCO`, 114 °C.
Then `CCn1c(N)c(C(=O)NC)c(=O)c2ccc(-c3ccc(NS(=O)(=O)c4cccc(Cl)c4Cl)cc3)nc21`, with 210 °C.
The result for `Cn1cc2ccc(F)cc2c1` reads 60 to 65 °C; that for `CC1(C)OC(=S)Nc2ccc(-c3ccccc3F)cc21`, 171 to 173 °C.
As to `CC(C)CC(=O)OC(C)OC(=O)NC1(C(=O)O)CC1` (centres undefined), the melting point lay within 117 to 119 °C.
The result for `CCOC(=O)N1CC(=O)NC(=O)N1Cc1ccc(Cl)cc1` reads 120 °C; that for `O=C1NC(=O)C2(CCCCC2)N1c1cccnc1`, 264 to 266 °C.
Then `CCOCc1cc2cc(Cl)ccc2oc1=O`, with 100 to 101 °C; and `CC(C)(C)OC(=O)NCc1cccc(OCCC2Oc3ccccc3N(Cc3ccccc3Cl)C2=O)c1` (centres undefined), with 115 to 116 °C; and `N#Cc1cnc2c(c1)N(Cc1cc(F)ccc1F)CCN2`, with 204 to 206 °C.
The result for `Clc1cc(CCCn2ccnc2)ccc1OCc1coc(-c2cccs2)n1` reads 93 to 94 °C.
In turn, `CCOC(C)(C)C#Cc1ncn2c1CN(C)C(=O)c1cc(F)ccc1-2` displayed a melting point of 136 to 138 °C.
`CS(=O)(=O)n1c2cc(O)c(O)cc2c2c(Br)cc(O)c(O)c21`: the melting point is more than 270 °C.
The result for `COc1cc(N2CCC(N3CCOCC3)CC2)ccc1-c1nc2c(N[C@H]3[C@@H](C(N)=O)[C@@H]4C=C[C@H]3C4)c(Br)cnc2[nH]1` reads 185 to 195 °C; that for `O=C(Cl)c1ccc(C(c2ccc(C(=O)Cl)cc2)(C(F)(F)F)C(F)(F)F)cc1`, 96 to 97 °C; that for `O=C1OCCc2ccc([N+](=O)[O-])cc21`, 124 to 125 °C.
The result for `O=C1N(c2ccc(Cl)cc2)c2ncccc2C1(Cc1ccncc1)Cc1ccccn1` (centres undefined) reads 193 to 195 °C.
Then `COc1cc2ncc(C#N)c(Nc3ccc4[nH]ccc4c3)c2cc1OC`, with more than 250 °C; and `Cc1ccc2[nH]c(C(=O)c3ccc(Cl)cc3)c(CC(=O)O)c2c1`, with 194 to 197 °C.
In turn, `CCCCCCCCCCCCCCCCCCON1C(=O)c2ccccc2C1=O` gave a melting point of 82 to 88 °C.
`CS(=O)(=O)c1ccc2ccc(C(=O)O)cc2c1`: the melting point was 273 to 274 °C.
The result for `CC#CC(O)(C#CC)C1(Cl)CC(c2ccccc2)=CC=C1N` (centres undefined) reads 112 to 114 °C; that for `Clc1cncnc1NCc1ccc(OCc2ccccc2)cc1`, 95 to 100 °C.
The result for `CN1CCN(c2ccc(S(=O)(=O)c3cccc(F)c3)c(N)c2)CC1` reads 89 to 92 °C; that for `CCn1cc(C(=O)OC)c(=O)c2cc(F)c(N3CCNCC3)cc21`, 179 to 181 °C.
The result for `CC(C)S(=O)(=O)C1=CC=CN(Cl)C1` reads 82 to 84 °C; that for `CS(=O)(=O)c1nnc(F)s1`, 65 °C.
Turning to `Cc1ccccc1-c1ccc(C(=O)N2Cc3cccn3Cc3ccccc32)cc1C`, the melting point was 145 to 148 °C.
The result for `N#CCCCc1ncccc1NS(=O)(=O)c1ccccc1` reads 80 to 81 °C; that for `COc1ccc(NC(=O)c2ccccc2)cc1NCc1ccc2c(c1)OCCO2`, 174 to 175 °C; that for `Cc1ccc(-c2nc(C#N)cc3c4cccc5c4n(c23)CCC5)cc1`, 217 to 218 °C.
Then `Cc1[nH]c2ccc(CCN3CCN(C)CC3)cc2c1C(=O)OCc1ccccc1`, with 167 to 168 °C; and `Oc1ccc2nc(Br)sc2c1`, with 203 to 204 °C; and `CCCC1=C(c2ccccc2)[C@@H](c2ccccc2)OC1=O`, with 104 to 105 °C.
Then `CN1CCC(OC(=O)COC(=O)c2ccccc2Nc2ccnc3c(C(F)(F)F)cccc23)(c2ccccc2)CC1`, with 144 to 145 °C; and `CN1CCC(=C2c3ccc(Cl)cc3C(=NO)Cc3cccnc32)CC1`, with 172 to 175 °C.
`Cc1cccc2nc(NC(=N)N)[nH]c12`: the melting point was more than 260 °C.
The compound `CCOC(=O)COc1cccc(C(NC(C)=O)(C(=O)OCC)C(=O)OCC)c1` registered a melting point of 98.5 to 102 °C.
In turn, `Cc1ccc(NC(=O)c2cccc([N+](=O)[O-])c2)cc1` gave a melting point of 160 to 162 °C.
Consider `CCNC(=O)NCCC1CCc2ccc3nc(C)oc3c21` (centres undefined), for which the melting point is 136 to 138 °C.
The result for `COC(=O)C1=Cc2ccc(OCc3nc(-c4ccccc4)oc3C)cc2CC1` reads 130 to 131 °C; that for `Cc1ccc(C(=O)NC(NC(=S)Nc2ccccc2C)C(F)(F)F)cc1` (centres undefined), 210 to 211 °C.
As to `CSc1ccc(C2=C(c3ccc(F)cc3C)CCC2)cc1`, the melting point fell in the range of 67 to 68 °C.
Then `COC(=O)Cc1ccc(OCC(C)NCC(O)c2ccc(Cl)cc2)cc1` (centres undefined), with 78 to 79 °C; and `COc1ccc(NC(=O)Oc2cccc3ccoc23)cc1`, with 157 to 159 °C; and `CCNC(=O)Nc1n[nH]c2ccc(-c3ncccc3Cl)cc12`, with 178 to 180 °C.
Then `CC(C)(O)C#Cc1ccc(-c2ccc(F)cc2)cc1`, with 118 °C; and `Cc1nc(CCc2ccccc2)c2c(c1O)COC2`, with 248 °C; and `OCc1cc(C2CN(CCCCCCOCCCCc3ccccc3)CO2)ccc1O` (racemic), with 72 to 75 °C.
The compound `O=C(O)C1Oc2ccccc2Cc2ccccc2O1` displayed a melting point of 153 to 157 °C.
Then `O=C(O)c1cc(S(=O)(=O)N(CCc2ccc(Cl)cc2)Cc2ccccc2)ccc1Br`, with 142 to 144 °C; and `O=C1NCCc2c(-c3cccc(-c4ccccc4)c3)[nH]c3cccc1c23`, with 160 to 163 °C.
Take `CCc1cc(C(=O)c2ccccc2Cl)c(-n2nnnc2CNC(=O)c2cc3ccccc3[nH]2)s1`: the melting point was in the range of 146 to 149 °C.
Then `CCOCc1nc2c(N)nc3cc(-c4cccc(C(=O)N5CCOCC5)c4)cnc3c2n1CC(C)C`, with 185 to 187 °C; and `CCN(C(=O)N1CCN(c2cc(OC)cc(OC)c2)CC1)c1nc(C)c(C)nc1OC`, with 78 to 80 °C.
Turning to `OCCC(c1ccccc1)C(O)(c1ccccc1)c1ccc(O)cc1` (centres undefined), the melting point was 192 to 194 °C.
In turn, `Cc1nc2ccc3c(c2o1)OC(CN1C2CCC1CC(O)(c1ccc4ccccc4c1)C2)CO3` (centres undefined) displayed a melting point of 192 to 195 °C.
Then `Cc1ccc(S(=O)(=O)OCC2(C)Cc3cc(Cl)cc(O)c3O2)cc1` (centres undefined), with 135 to 137 °C; and `Cc1noc(NS(=O)(=O)c2ccccc2-c2ccc(-c3ccncn3)cc2)c1C`, with 211 to 214 °C; and `N#Cc1cc(N2CCC(N3CCOCC3)CC2)ccc1N`, with 178 to 180 °C.
The result for `O=C(NCC1(O)CCCCCC1)c1cc(-c2ccccc2C(=O)O)ccc1Cl` reads 113 to 116 °C; that for `Cc1ccc(Cc2cnc(NCCCN(Cc3cccc(Cl)c3)c3ccccn3)[nH]c2=O)cn1`, 100 to 104 °C.
The result for `COc1c(C)c(C)c(OC)c(C(O)(c2ccc(N3CCOCC3)cc2)C(C)C)c1C` (centres undefined) reads 191 to 193 °C; that for `CCCCc1nc(Cl)c(CC(=O)OCC)c(Cc2ccc(C(=O)O)cc2)n1`, 130 °C; that for `CON=C(c1nnco1)c1ccccc1COc1cc(C)ccc1C`, 134 to 135 °C.
In turn, `COc1cc(NC(C)=O)c(Cl)cc1C(=O)NN1CCN(CCC(C)C)CC1` showed a melting point of 128 to 130 °C.
The result for `Cc1cccc(C(=O)Nc2c[nH]nc2C(=O)NCCC(=O)O)n1` reads 246 to 247 °C.
Then `CO/N=C/C1=NNC(=O)N(/N=C/c2cccnc2)C1`, with 237 to 238 °C; and `NC(=O)c1ccnc(CCCCCCOCCCCCCBr)c1`, with 73 to 75 °C.
The result for `COc1cc(Nc2nccc(-c3ccc(OCCCN)cc3)n2)cc(OC)c1OC` reads 161 to 162 °C.
`C=CCNC(=O)COc1ccc(C2=NNC(=O)CC2)cc1Cl`: the melting point was 145 to 146 °C.
The result for `CC(C)(O)C#Cc1ncn2c1[C@@H]1CCCN1C(=O)c1c(Br)cccc1-2` reads 227 to 228 °C.
